Numbers after ± are expanded uncertainties.
Conditions: for mass density: Vibrating tube method

FC(F)=C(F)C(F)(F)F [hexafluoropropene]
Conditions | mass density [kg/m3] | vapor or sublimation pressure [kPa]
283.17 K, 6464.6 kPa, Liquid | 1420.83 ± 1.4 | –
283.17 K, 6531.5 kPa, Liquid | 1421.22 ± 1.5 | –
283.17 K, 6599.8 kPa, Liquid | 1421.62 ± 1.5 | –
283.17 K, 6668.2 kPa, Liquid | 1422.01 ± 1.5 | –
283.17 K, 6734.8 kPa, Liquid | 1422.36 ± 1.5 | –
283.17 K, 6802 kPa, Liquid | 1422.82 ± 1.5 | –
283.17 K, 6878.8 kPa, Liquid | 1423.17 ± 1.5 | –
283.17 K, 6945.1 kPa, Liquid | 1423.6 ± 1.5 | –
283.17 K, 7018.8 kPa, Liquid | 1423.92 ± 1.5 | –
283.17 K, 7085.3 kPa, Liquid | 1424.29 ± 1.5 | –
283.17 K, 7154.4 kPa, Liquid | 1424.62 ± 1.5 | –
283.17 K, 7220.3 kPa, Liquid | 1425.09 ± 1.5 | –
283.17 K, 7293 kPa, Liquid | 1425.48 ± 1.5 | –
283.17 K, 7359.6 kPa, Liquid | 1425.9 ± 1.5 | –
283.17 K, 7428.2 kPa, Liquid | 1426.22 ± 1.5 | –
283.17 K, 7493.3 kPa, Liquid | 1426.61 ± 1.5 | –
283.17 K, 7562.9 kPa, Liquid | 1426.95 ± 1.5 | –
283.17 K, 7634.7 kPa, Liquid | 1427.34 ± 1.5 | –
283.17 K, 7780.3 kPa, Liquid | 1428.05 ± 1.5 | –
283.17 K, 7854.7 kPa, Liquid | 1428.44 ± 1.5 | –
283.17 K, 7922.9 kPa, Liquid | 1428.82 ± 1.5 | –
283.17 K, 7991.9 kPa, Liquid | 1429.21 ± 1.5 | –
283.17 K, 8053 kPa, Liquid | 1429.55 ± 1.5 | –
283.17 K, 8093.3 kPa, Liquid | 1429.79 ± 1.5 | –
283.17 K, 8134.7 kPa, Liquid | 1429.94 ± 1.5 | –
283.17 K, 8175.7 kPa, Liquid | 1430.23 ± 1.5 | –
283.17 K, 8222.2 kPa, Liquid | 1430.51 ± 1.5 | –
283.17 K, 8262.6 kPa, Liquid | 1430.66 ± 1.5 | –
283.17 K, 8310.9 kPa, Liquid | 1430.87 ± 1.5 | –
283.17 K, 8353.2 kPa, Liquid | 1431.08 ± 1.5 | –
283.17 K, 8393.4 kPa, Liquid | 1431.32 ± 1.5 | –
283.17 K, 8434 kPa, Liquid | 1431.55 ± 1.5 | –
283.17 K, 8474.2 kPa, Liquid | 1431.73 ± 1.5 | –
283.17 K, 8517.4 kPa, Liquid | 1432.02 ± 1.5 | –
283.17 K, 8563.4 kPa, Liquid | 1432.23 ± 1.5 | –
283.17 K, 8609.7 kPa, Liquid | 1432.53 ± 1.5 | –
283.17 K, 8651.7 kPa, Liquid | 1432.69 ± 1.5 | –
283.17 K, 8693.8 kPa, Liquid | 1432.88 ± 1.5 | –
283.17 K, 8735.7 kPa, Liquid | 1433.12 ± 1.5 | –
283.17 K, 8779.9 kPa, Liquid | 1433.38 ± 1.5 | –
283.17 K, 8821.1 kPa, Liquid | 1433.52 ± 1.5 | –
283.17 K, 8871.9 kPa, Liquid | 1433.93 ± 1.5 | –
283.17 K, 8912.3 kPa, Liquid | 1434 ± 1.5 | –
283.17 K, 8953.6 kPa, Liquid | 1434.33 ± 1.5 | –
283.17 K, 8996.5 kPa, Liquid | 1434.45 ± 1.5 | –
283.17 K, 9044.1 kPa, Liquid | 1434.75 ± 1.5 | –
283.17 K, 9090.4 kPa, Liquid | 1435.02 ± 1.5 | –
283.17 K, 9132.2 kPa, Liquid | 1435.25 ± 1.5 | –
283.17 K, 9176.2 kPa, Liquid | 1435.35 ± 1.5 | –
283.17 K, 9217 kPa, Liquid | 1435.66 ± 1.5 | –
283.17 K, 9261 kPa, Liquid | 1435.85 ± 1.5 | –
283.17 K, 9303.9 kPa, Liquid | 1436.08 ± 1.5 | –
283.17 K, 9347.1 kPa, Liquid | 1436.32 ± 1.5 | –
283.17 K, 9392.3 kPa, Liquid | 1436.51 ± 1.5 | –
283.17 K, 9439 kPa, Liquid | 1436.78 ± 1.5 | –
283.17 K, 9480.9 kPa, Liquid | 1436.91 ± 1.5 | –
283.17 K, 9522.3 kPa, Liquid | 1437.19 ± 1.5 | –
283.17 K, 9569.5 kPa, Liquid | 1437.37 ± 1.5 | –
283.17 K, 9612.2 kPa, Liquid | 1437.57 ± 1.5 | –
283.17 K, 9656.4 kPa, Liquid | 1437.81 ± 1.5 | –
283.17 K, 9696.9 kPa, Liquid | 1438.08 ± 1.5 | –
283.17 K, 9737.5 kPa, Liquid | 1438.29 ± 1.5 | –
283.17 K, 9778 kPa, Liquid | 1438.42 ± 1.5 | –
283.17 K, 9820 kPa, Liquid | 1438.63 ± 1.5 | –
283.17 K, 9860.9 kPa, Liquid | 1438.96 ± 1.5 | –
283.17 K, 9908.7 kPa, Liquid | 1439.08 ± 1.5 | –
283.17 K, 9991.1 kPa, Liquid | 1439.48 ± 1.5 | –
283.23 K, Liquid, Closed cell (Static) method | – | 459 ± 1.3
283.24 K, 3.6 kPa, Fluid (supercritical or subcritical phases) | 0.14 ± 0.03 | –
283.24 K, 4 kPa, Fluid (supercritical or subcritical phases) | 0.18 ± 0.03 | –
283.24 K, 4.5 kPa, Fluid (supercritical or subcritical phases) | 0.18 ± 0.03 | –
283.24 K, 5.1 kPa, Fluid (supercritical or subcritical phases) | 0.27 ± 0.03 | –
283.24 K, 6 kPa, Fluid (supercritical or subcritical phases) | 0.3 ± 0.03 | –
283.24 K, 7.2 kPa, Fluid (supercritical or subcritical phases) | 0.31 ± 0.03 | –
283.24 K, 8.2 kPa, Fluid (supercritical or subcritical phases) | 0.4 ± 0.03 | –
283.24 K, 9.1 kPa, Fluid (supercritical or subcritical phases) | 0.47 ± 0.03 | –
283.24 K, 9.8 kPa, Fluid (supercritical or subcritical phases) | 0.52 ± 0.03 | –
283.24 K, 10.8 kPa, Fluid (supercritical or subcritical phases) | 0.56 ± 0.03 | –
283.24 K, 11.8 kPa, Fluid (supercritical or subcritical phases) | 0.65 ± 0.03 | –
283.24 K, 12.6 kPa, Fluid (supercritical or subcritical phases) | 0.7 ± 0.03 | –
283.24 K, 13.4 kPa, Fluid (supercritical or subcritical phases) | 0.85 ± 0.03 | –
283.24 K, 14.4 kPa, Fluid (supercritical or subcritical phases) | 0.85 ± 0.03 | –
283.24 K, 15.2 kPa, Fluid (supercritical or subcritical phases) | 0.87 ± 0.03 | –
283.24 K, 16 kPa, Fluid (supercritical or subcritical phases) | 0.88 ± 0.03 | –
283.24 K, 17 kPa, Fluid (supercritical or subcritical phases) | 0.98 ± 0.03 | –
283.24 K, 18.1 kPa, Fluid (supercritical or subcritical phases) | 1.01 ± 0.03 | –
283.24 K, 19.2 kPa, Fluid (supercritical or subcritical phases) | 1.12 ± 0.03 | –
283.24 K, 20.3 kPa, Fluid (supercritical or subcritical phases) | 1.19 ± 0.03 | –
283.24 K, 21.5 kPa, Fluid (supercritical or subcritical phases) | 1.25 ± 0.03 | –
283.24 K, 22.7 kPa, Fluid (supercritical or subcritical phases) | 1.31 ± 0.03 | –
283.24 K, 23.9 kPa, Fluid (supercritical or subcritical phases) | 1.47 ± 0.03 | –
283.24 K, 25.1 kPa, Fluid (supercritical or subcritical phases) | 1.47 ± 0.03 | –
283.24 K, 26.3 kPa, Fluid (supercritical or subcritical phases) | 1.57 ± 0.03 | –
283.24 K, 27.6 kPa, Fluid (supercritical or subcritical phases) | 1.66 ± 0.03 | –
283.24 K, 28.8 kPa, Fluid (supercritical or subcritical phases) | 1.74 ± 0.03 | –
283.24 K, 30 kPa, Fluid (supercritical or subcritical phases) | 1.8 ± 0.03 | –
283.24 K, 31.2 kPa, Fluid (supercritical or subcritical phases) | 1.87 ± 0.03 | –
283.24 K, 32.6 kPa, Fluid (supercritical or subcritical phases) | 1.92 ± 0.03 | –
283.24 K, 33.8 kPa, Fluid (supercritical or subcritical phases) | 2.04 ± 0.03 | –
283.24 K, 35.1 kPa, Fluid (supercritical or subcritical phases) | 2.16 ± 0.03 | –
283.24 K, 36.3 kPa, Fluid (supercritical or subcritical phases) | 2.23 ± 0.03 | –
283.24 K, 37.6 kPa, Fluid (supercritical or subcritical phases) | 2.25 ± 0.03 | –
283.24 K, 38.8 kPa, Fluid (supercritical or subcritical phases) | 2.33 ± 0.03 | –
283.24 K, 40.1 kPa, Fluid (supercritical or subcritical phases) | 2.39 ± 0.03 | –
283.24 K, 41.4 kPa, Fluid (supercritical or subcritical phases) | 2.51 ± 0.03 | –
283.24 K, 42.6 kPa, Fluid (supercritical or subcritical phases) | 2.65 ± 0.03 | –
283.24 K, 43.9 kPa, Fluid (supercritical or subcritical phases) | 2.74 ± 0.03 | –
283.24 K, 45.1 kPa, Fluid (supercritical or subcritical phases) | 2.76 ± 0.03 | –
283.24 K, 46.4 kPa, Fluid (supercritical or subcritical phases) | 2.84 ± 0.03 | –
283.24 K, 47.7 kPa, Fluid (supercritical or subcritical phases) | 2.93 ± 0.03 | –
283.24 K, 49 kPa, Fluid (supercritical or subcritical phases) | 3.04 ± 0.03 | –
283.24 K, 50.2 kPa, Fluid (supercritical or subcritical phases) | 3.09 ± 0.03 | –
283.24 K, 52.8 kPa, Fluid (supercritical or subcritical phases) | 3.28 ± 0.03 | –
283.24 K, 55.4 kPa, Fluid (supercritical or subcritical phases) | 3.44 ± 0.03 | –
283.24 K, 58.1 kPa, Fluid (supercritical or subcritical phases) | 3.61 ± 0.03 | –
283.24 K, 60.8 kPa, Fluid (supercritical or subcritical phases) | 3.81 ± 0.03 | –
283.24 K, 63.5 kPa, Fluid (supercritical or subcritical phases) | 3.98 ± 0.03 | –
283.24 K, 69.3 kPa, Fluid (supercritical or subcritical phases) | 4.38 ± 0.03 | –
283.24 K, 72.2 kPa, Fluid (supercritical or subcritical phases) | 4.52 ± 0.03 | –
283.24 K, 75.2 kPa, Fluid (supercritical or subcritical phases) | 4.75 ± 0.03 | –
283.24 K, 78.1 kPa, Fluid (supercritical or subcritical phases) | 4.95 ± 0.03 | –
283.24 K, 81.2 kPa, Fluid (supercritical or subcritical phases) | 5.2 ± 0.03 | –
283.24 K, 84.2 kPa, Fluid (supercritical or subcritical phases) | 5.34 ± 0.03 | –
283.24 K, 87.2 kPa, Fluid (supercritical or subcritical phases) | 5.58 ± 0.03 | –
283.24 K, 90.3 kPa, Fluid (supercritical or subcritical phases) | 5.77 ± 0.03 | –
283.24 K, 93.4 kPa, Fluid (supercritical or subcritical phases) | 6 ± 0.03 | –
283.24 K, 96.5 kPa, Fluid (supercritical or subcritical phases) | 6.19 ± 0.03 | –
283.24 K, 99.6 kPa, Fluid (supercritical or subcritical phases) | 6.44 ± 0.03 | –
283.24 K, 102 kPa, Fluid (supercritical or subcritical phases) | 6.55 ± 0.03 | –
283.24 K, 104.4 kPa, Fluid (supercritical or subcritical phases) | 6.69 ± 0.03 | –
283.24 K, 106.7 kPa, Fluid (supercritical or subcritical phases) | 6.88 ± 0.03 | –
283.24 K, 109.2 kPa, Fluid (supercritical or subcritical phases) | 7.05 ± 0.03 | –
283.24 K, 111.6 kPa, Fluid (supercritical or subcritical phases) | 7.23 ± 0.03 | –
